Assay results published in patent US4727074A, “2-(phenylmethylene)-1-(diaminoalkoxy) cycloalkanes and their pharmaceutical uses” (priority 1983, dated 1988).

What was measured:
[1] = tested on: Hexobarbital sleeping time; experiment: animal or person; type: in vivo; settings: for ED50: Mus musculus, iv, read-out: ED50 (narcosis potentiating effect); for Therapeutical index (narcosis potentiating): Table I, LD50/ED50, mice; for ED50 (narcosis potentiating effect): mice, Hexobarbital i.v., effect = sleeping time 2.5 times longer than control
Procedure: (2) Narcosis potentiating effect
To mice having a body weight of 20-24 g Hexobarbital is administered intravenously in a dose of […]. The sleeping time of the treated and control animals is measured.

[2] = Acute toxicity on mice (oral); type: in vivo; settings: mouse, in vivo, 4 days observation
Procedure: (§1) (1) Acute toxicity on mice
(§2) The acute toxicity is determined on male and female white mice of the CFLP strain. The body weight of the animals amounts to 18-24 g. The test compound is administered orally in a dose of 20 ml/kg. After treatment the animals are placed in a mouse box and kept on scrapings litter at room temperature. The animals receive mouse fodder and tap water ad libitum.

writhing reactions = experiment: Analgesic effect on mice (acetic acid writhing); type: in vivo; settings: for ED50: Mus musculus, po, 1 h, read-out: ED50 (analgesic effect); for Therapeutical index (analgesic): Table II, LD50/ED50, mice; for ED50 (analgesic effect) / ED50 (analgesic effect), inactive: mice, oral; for ED50 (analgesic effect): one hour prior to 0.5% acetic acid
Procedure: (3) Analgesic effect on mice
To mice 0.4 ml of 0.5% acetic acid is […] administered. After 5 minutes the characteristic writhing reactions are counted for a period of 5 minutes. The test compound is administered orally one hour prior to the administration of acetic acid. The activity is expressed in the percentage of the data obtained for the control group.

[3] = tested on: white mice of the CFLP strain; experiment: Acute toxicity on mice (oral); type: in vivo; settings: 4 days observation
Procedure: as §1, §2

[4] = Acute toxicity i.v. (LD50 of Table IV); settings: rat, in vivo
aconitine = experiment: animal or person; type: in vivo, rats; settings: for ED50: Rattus norvegicus, iv, read-out: Percental aconitine inhibition ED50; for Therapeutical index (antiarrhythmial): Table IV, LD50 i.v./ED50; for Percental inhibition of aconitine: rats, 2 minutes before aconitine
Procedure: (4) Antiarrhythmial effect on rats
The antiarrhythmial effect is determined on rats (both male and female; body weight 160-200 g) according to the modified test of Marmo et al. [Marmo et al.: Arzneimittelforschung 20, 12 (1970)]. Aconitine is intravenously administered in the form of a bolus injection. The ECG deviations are followed for 5 minutes by a standard II method. The test compound is administered intravenously 2 minutes before the addition of aconitine.
In Table IV the antiarrhythmial effect of a representative compound of the present invention is compared to that of a very active compound specifically disclosed in Hungarian Pat. No. 169,298. The test is carried out as disclosed in connection with Table III.

C(=C1/CCCC/C1=N\OCCCN1CCN(c2ccccc2)CC1)/c1ccccc1 [Example 1, 2-[(E)-phenylmethylene]-1-[(E)-(4'-phenyl-piperazinyl-propoxyimino)]-cyclohexane]
ED50 [1]: 200 mg/kg | Therapeutical index (narcosis potentiating) [1]: 10.0 | LD50 at 96 h ([2]; po, Table I): 2000 mg/kg | LD50 at 96 h ([2]; po, Table II): > 2000 mg/kg | ED50 (writhing reactions): 200 mg/kg | Therapeutical index (analgesic) (writhing reactions): > 10.0

Clc1cccc(/C=C2\CCCCC\C2=N/OCCCN2CCN(Cc3ccccc3)CC2)c1 [Example 2, 2-[(E)-(m-chloro-phenylmethylene)]-1-[(E)-(4'-benzylpiperazinyl-propoxyimino)]-cycloheptane]
LD50 ([3]; Table II): 740 mg/kg | Therapeutical index (analgesic) (writhing reactions): 17.2 | ED50 (analgesic effect) (writhing reactions): 43 mg/kg

CC(C)N(CCCO/N=C1\CCCC\C1=C/c1ccc(Cl)cc1)C(C)C [Example 3, 2-[(E)-(p-chloro-phenylmethylene)]-1-[(E)-(3'-diisopropylamino-propoxyimino)]-cyclohexane]
LD50 at 96 h ([2]; po, Table II): 1100 mg/kg | ED50 (writhing reactions): 45 mg/kg | Therapeutical index (analgesic) (writhing reactions): 24.2

CC(C)N(CCCO/N=C1\CCCC\C1=C/c1ccccc1)C(C)C [Example 4, 2-[(E)-phenylmethylene]-1-[(E)-(3'-diisopropylamino-propoxyimino)]-cyclohexane]
LD50 [4]: 12.5 mg/kg | ED50 (aconitine): 0.54 mg/kg | Therapeutical index (antiarrhythmial) (aconitine): 23.14 | Percental inhibition of aconitine (aconitine; dose 1 mg/kg i.v.): 86.2 Percental

CC(C)N(CCO/N=C1\CCCCC\C1=C\c1ccccc1)C(C)C [Example 5, 2-[(Z)-phenylmethylene]-1-[(E)-(2'-diisopropylamino-ethoxyimino)]-cycloheptane]
ED50 [1]: 40 mg/kg | Therapeutical index (narcosis potentiating) [1]: 20.0 | LD50 at 96 h ([2]; po, Table I): 800 mg/kg | Percental inhibition of aconitine (aconitine; dose 4 mg/kg i.v.): 34.7 Percental

CC(CO/N=C1\CCCCC\C1=C/c1ccccc1)N(C)C (stereo not drawn) [Example 8, 2-[(E)-phenylmethylene]-1-[(E)-(2'-dimethylamino-2'-methyl-1-ethoxyimino)]-cycloheptane]
ED50 [1]: 22 mg/kg | Therapeutical index (narcosis potentiating) [1]: 36.4 | LD50 at 96 h ([2]; po, Table I): 800 mg/kg

CC(CO/N=C1\CCCC\C1=C/c1ccccc1)N(C)C (stereo not drawn) [Example 9, 2-[(E)-phenylmethylene]-1-[(E)-(2'-dimethylamino-2'-methyl-1-ethoxyimino)]-cyclohexane]
ED50 [1]: 23 mg/kg | Therapeutical index (narcosis potentiating) [1]: 26.0 | LD50 at 96 h ([2]; po, Table I): 600 mg/kg

CC(C)N(CCO/N=C1\CCCCCC\C1=C/c1ccccc1)C(C)C [Example 10, 2-[(E)-phenylmethylene]-1-[(E)-(2'-diisopropylamino-ethoxyimino)]-cyclooctane]
LD50 at 96 h ([2]; po, Table II): 400 mg/kg | Percental inhibition of aconitine (aconitine; dose 4 mg/kg i.v.): 57.6 Percental | ED50 (writhing reactions): 58 mg/kg | Therapeutical index (analgesic) (writhing reactions): 6.9

CN(C)CCCO/N=C1\CCCCCC\C1=C/c1ccccc1 [Example 11]
Therapeutical index (narcosis potentiating) [1]: 500.0 | ED50 (narcosis potentiating effect) [1]: 2 mg/kg | LD50 ([3]; Table I): 1000 mg/kg | LD50 ([3]; Table II): 1000 mg/kg | Therapeutical index (analgesic) (writhing reactions): 6.7 | ED50 (analgesic effect) (writhing reactions): 150 mg/kg

CC(C)N(CCO/N=C1\CCCC\C1=C/c1ccccc1)C(C)C [Example 12]
Percental inhibition of aconitine (aconitine; dose 2 mg/kg i.v.): 39.2 Percental

CN(C)CCO/N=C1\CCCC\C1=C/c1ccc(Cl)cc1 [Example 13]
ED50 [1]: 10 mg/kg | Therapeutical index (narcosis potentiating) [1]: 200.0 | LD50 at 96 h ([2]; po, Table I): 2000 mg/kg | Percental inhibition of aconitine (aconitine; dose 2 mg/kg i.v.): 35.3 Percental

CCN(CC)CC(=O)Nc1c(C)cccc1C [Lidocaine, N,N-diethyl-2,6-dimethyl-acetanilide, reference compound]
Percental inhibition of aconitine (aconitine; dose 4 mg/kg i.v.): 23.5 Percental

CCCC(C)(COC(N)=O)COC(N)=O [Meprobamate, 2-methyl-2-n-propyl-1,3-propanediol-dicarbamate, reference compound]
ED50 [1]: 260 mg/kg | Therapeutical index (narcosis potentiating) [1]: 4.2 | LD50 at 96 h ([2]; Table I): 1100 mg/kg

CC(=O)Nc1ccc(O)cc1 [Paracetamol, 4-hydroxy-acetanilide, reference compound]
ED50 (writhing reactions): 180 mg/kg

CN(C)CCCON=C1CCCCC1Cc1ccccc1 (stereo not drawn) [Reference compound A, 2-benzyl-1-(3'-dimethylamino-propoxy-imino)-cyclohexane, reference compound]
ED50 (narcosis potentiating effect) [1]: inactive in a dose of 50 mg/kg | LD50 at 96 h ([2]; po, Table II): 250 mg/kg

COc1ccccc1C=C1CCCCC1=NOCC(C)CN(C)C (stereo not drawn) [Reference compound C, 1-(2'-methyl-3'-dimethylaminopropoxyimino)-2-(o-methoxy-benzal)-cyclohexane, reference compound]
ED50 (narcosis potentiating effect) [1]: inactive in a dose of 100 mg/kg

CN(C)CCCON=C1CCCCC1Cc1ccc(Cl)cc1 (stereo not drawn) [Reference compound E, 1-(3'-dimethylamino-propoxyimino)-2-(p-chlorobenzyl)-cyclohexane, reference compound]
ED50 (narcosis potentiating effect) [1]: inactive in a dose of 170 mg/kg

COc1ccc(C=C2CCCCC2=NOCCCN(C)C)cc1 [Reference compound F, 1-(3'-dimethylamino-propoxyimino)-2-(p-methoxybenzal)-cyclohexane, reference compound]
LD50 at 96 h ([2]; po, Table II): 1750 mg/kg | ED50 (analgesic effect), inactive (writhing reactions; in a dose of 350 mg/kg): inactive

CC(C)N(CCON=C1CCCCCC1=Cc1ccccc1)C(C)C [Reference compound G, 2-benzal-1-(2'-diisopropylamino-ethoxyimino)-cycloheptane, reference compound]
LD50 at 96 h ([2]; po, Table II): 325 mg/kg | LD50 [4]: 21.2 mg/kg | ED50 (aconitine): 2 mg/kg | Therapeutical index (antiarrhythmial) (aconitine): 10.59 | ED50 (analgesic effect), inactive (writhing reactions; in a dose of 65 mg/kg): inactive
